In article PMC10123497 (RSC Advances, 2023):
Where two headings read alike, the source gives them in different places.

How the values were obtained:
HCT-116 = assay: MTT in vitro cytotoxicity assay; details: for IC50: Homo sapiens, HCT-116, 24 h, read-out: In vitro cytotoxicity activity IC50 ± SD; for Selectivity index (SI): (IC50 of WI-38)/(IC50 of HCT-116)
HepG2 = assay: MTT in vitro cytotoxicity assay; details: for IC50: Homo sapiens, HepG2, 24 h, read-out: In vitro cytotoxicity activity IC50 ± SD; for Selectivity index (SI): (IC50 of WI-38)/(IC50 of HepG2)
EGFR^(L858R) = EGFR^(L858R) (Homo sapiens, UniProt P00533, L858R); assay: EGFR; assay type: biochemical
Sequence of EGFR^(L858R) (P00533 25-1210 L858R): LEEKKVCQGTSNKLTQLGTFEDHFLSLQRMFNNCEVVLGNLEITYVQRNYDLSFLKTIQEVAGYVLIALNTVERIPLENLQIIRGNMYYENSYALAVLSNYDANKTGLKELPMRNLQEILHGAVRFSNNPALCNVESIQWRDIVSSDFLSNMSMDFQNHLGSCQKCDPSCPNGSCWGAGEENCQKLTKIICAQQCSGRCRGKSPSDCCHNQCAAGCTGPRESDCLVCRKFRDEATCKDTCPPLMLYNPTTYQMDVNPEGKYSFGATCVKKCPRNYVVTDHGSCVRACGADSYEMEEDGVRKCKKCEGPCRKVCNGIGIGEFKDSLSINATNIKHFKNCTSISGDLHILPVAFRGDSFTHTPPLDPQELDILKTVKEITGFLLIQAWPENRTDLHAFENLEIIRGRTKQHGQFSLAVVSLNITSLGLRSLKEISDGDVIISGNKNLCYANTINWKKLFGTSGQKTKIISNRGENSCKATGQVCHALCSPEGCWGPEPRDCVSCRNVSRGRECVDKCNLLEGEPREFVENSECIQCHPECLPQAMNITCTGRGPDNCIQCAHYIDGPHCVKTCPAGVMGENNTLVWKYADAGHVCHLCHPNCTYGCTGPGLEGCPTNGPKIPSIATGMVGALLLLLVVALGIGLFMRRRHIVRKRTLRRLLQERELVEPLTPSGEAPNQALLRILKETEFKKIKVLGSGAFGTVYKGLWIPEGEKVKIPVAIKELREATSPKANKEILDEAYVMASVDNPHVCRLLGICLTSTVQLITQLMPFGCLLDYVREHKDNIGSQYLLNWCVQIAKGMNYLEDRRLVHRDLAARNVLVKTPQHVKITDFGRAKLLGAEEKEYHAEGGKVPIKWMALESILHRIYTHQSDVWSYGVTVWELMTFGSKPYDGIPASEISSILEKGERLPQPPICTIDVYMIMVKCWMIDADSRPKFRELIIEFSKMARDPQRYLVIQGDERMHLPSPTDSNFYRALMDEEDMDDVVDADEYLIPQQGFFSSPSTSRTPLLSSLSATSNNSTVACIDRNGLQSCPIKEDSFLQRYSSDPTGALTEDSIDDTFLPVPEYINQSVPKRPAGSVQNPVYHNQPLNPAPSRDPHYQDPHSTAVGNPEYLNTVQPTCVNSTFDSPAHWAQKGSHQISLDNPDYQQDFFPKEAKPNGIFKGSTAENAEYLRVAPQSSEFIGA

MCF-7 = assay: MTT in vitro cytotoxicity assay; details: for Selectivity index (SI): (IC50 of WI-38)/(IC50 of MCF-7); for IC50: read-out: In vitro cytotoxicity activity IC50 ± SD
EGFR^Wt = EGFR^Wt (Homo sapiens, UniProt P00533); assay: EGFR Kinase Assay Kit; assay type: biochemical
Sequence of EGFR^Wt (P00533 25-1210): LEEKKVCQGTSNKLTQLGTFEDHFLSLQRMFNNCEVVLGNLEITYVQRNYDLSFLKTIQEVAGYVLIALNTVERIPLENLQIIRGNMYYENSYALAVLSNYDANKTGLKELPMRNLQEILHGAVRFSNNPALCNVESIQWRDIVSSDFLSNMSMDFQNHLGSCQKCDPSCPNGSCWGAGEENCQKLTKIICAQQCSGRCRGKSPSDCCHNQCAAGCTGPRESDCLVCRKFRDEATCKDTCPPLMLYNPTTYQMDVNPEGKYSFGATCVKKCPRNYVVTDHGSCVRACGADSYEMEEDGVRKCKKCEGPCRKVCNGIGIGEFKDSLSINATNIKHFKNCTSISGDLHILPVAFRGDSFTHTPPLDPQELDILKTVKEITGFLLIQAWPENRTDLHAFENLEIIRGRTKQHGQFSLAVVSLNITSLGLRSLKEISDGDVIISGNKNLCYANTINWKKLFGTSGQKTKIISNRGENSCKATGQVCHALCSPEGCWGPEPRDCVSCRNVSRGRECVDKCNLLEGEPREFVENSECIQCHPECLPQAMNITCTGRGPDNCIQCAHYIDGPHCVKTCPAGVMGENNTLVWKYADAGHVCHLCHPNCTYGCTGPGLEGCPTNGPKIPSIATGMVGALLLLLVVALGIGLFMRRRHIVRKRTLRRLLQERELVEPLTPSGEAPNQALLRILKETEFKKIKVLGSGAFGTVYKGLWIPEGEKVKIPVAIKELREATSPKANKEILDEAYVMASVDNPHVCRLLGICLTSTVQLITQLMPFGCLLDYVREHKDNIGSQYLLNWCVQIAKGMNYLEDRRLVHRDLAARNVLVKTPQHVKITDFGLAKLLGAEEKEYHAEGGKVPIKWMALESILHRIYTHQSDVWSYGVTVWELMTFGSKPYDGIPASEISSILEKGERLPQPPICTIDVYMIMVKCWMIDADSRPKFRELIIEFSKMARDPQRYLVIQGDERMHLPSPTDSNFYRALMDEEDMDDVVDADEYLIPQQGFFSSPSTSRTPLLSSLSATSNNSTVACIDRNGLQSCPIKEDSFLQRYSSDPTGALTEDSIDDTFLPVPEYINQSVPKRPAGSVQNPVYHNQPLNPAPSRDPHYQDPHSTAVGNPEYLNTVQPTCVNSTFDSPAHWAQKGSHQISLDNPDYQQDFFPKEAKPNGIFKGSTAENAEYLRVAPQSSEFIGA

p53 = assay: qRT-PCR gene expression in MCF-7; assay type: cell-based, human; details: MCF-7, vs untreated control = 1
VEGFR2 = VEGFR2 (Homo sapiens, UniProt P35968); assay: biochemical
Sequence of VEGFR2 (P35968 20-1356): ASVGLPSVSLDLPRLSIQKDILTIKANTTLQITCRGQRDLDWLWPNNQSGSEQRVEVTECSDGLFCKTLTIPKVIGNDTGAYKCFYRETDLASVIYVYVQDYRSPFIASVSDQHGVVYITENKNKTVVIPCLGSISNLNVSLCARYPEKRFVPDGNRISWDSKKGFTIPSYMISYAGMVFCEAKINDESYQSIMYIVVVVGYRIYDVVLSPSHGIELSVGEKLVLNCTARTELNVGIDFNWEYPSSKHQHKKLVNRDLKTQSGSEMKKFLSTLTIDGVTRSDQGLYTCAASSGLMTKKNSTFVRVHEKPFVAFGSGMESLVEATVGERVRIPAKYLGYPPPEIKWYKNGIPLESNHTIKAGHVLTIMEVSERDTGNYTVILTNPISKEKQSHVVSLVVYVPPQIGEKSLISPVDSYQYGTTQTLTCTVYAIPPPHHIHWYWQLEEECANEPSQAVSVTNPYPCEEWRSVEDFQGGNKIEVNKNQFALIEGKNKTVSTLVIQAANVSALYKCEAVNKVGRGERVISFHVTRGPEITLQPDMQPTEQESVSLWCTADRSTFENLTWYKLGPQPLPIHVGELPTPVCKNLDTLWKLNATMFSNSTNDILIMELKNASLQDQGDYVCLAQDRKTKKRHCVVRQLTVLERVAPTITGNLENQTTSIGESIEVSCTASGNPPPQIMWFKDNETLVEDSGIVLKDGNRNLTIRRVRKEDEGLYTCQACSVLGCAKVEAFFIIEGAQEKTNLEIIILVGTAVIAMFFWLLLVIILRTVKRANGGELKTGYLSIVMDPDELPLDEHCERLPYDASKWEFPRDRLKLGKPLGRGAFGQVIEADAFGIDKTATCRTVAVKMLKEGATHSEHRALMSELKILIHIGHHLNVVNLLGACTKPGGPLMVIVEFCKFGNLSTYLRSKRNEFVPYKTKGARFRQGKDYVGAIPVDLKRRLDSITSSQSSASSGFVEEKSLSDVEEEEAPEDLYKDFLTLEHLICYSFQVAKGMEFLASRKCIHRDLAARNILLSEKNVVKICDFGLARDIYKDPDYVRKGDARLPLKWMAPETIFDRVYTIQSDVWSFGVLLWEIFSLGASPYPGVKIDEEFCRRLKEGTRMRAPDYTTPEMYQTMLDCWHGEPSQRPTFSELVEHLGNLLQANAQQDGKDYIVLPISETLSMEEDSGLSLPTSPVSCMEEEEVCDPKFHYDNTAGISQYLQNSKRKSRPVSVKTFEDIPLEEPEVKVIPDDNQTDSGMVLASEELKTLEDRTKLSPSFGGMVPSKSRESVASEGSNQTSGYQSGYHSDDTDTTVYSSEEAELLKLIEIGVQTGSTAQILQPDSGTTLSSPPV

MCF-7 cells [1] = assay: Cell cycle analysis by flow cytometry; assay type: cell-based, human; details: MCF-7 treated at IC50 = 3.82 μM
MDA-MB-231 = assay: MTT in vitro cytotoxicity assay; assay type: cell-based, human; details: for Selectivity index (SI): (IC50 of WI-38)/(IC50 of MDA-MB-231)
[2] = MTT cytotoxicity on non-tumorigenic normal cell line; assay type: cell-based; details: human, WI-38 cells (non-tumorigenic normal lung fibroblasts)
MCF-7 cells [3] = assay: Annexin-V/propidium iodide apoptosis assay; assay type: cell-based, human

CCOC(=O)C(C#N)=C1Sc2nc3ccc(S(=O)(=O)N4CCCC4)cc3nc2S1 [Compound 10b, Ethyl 2-cyano-2-(6-(pyrrolidin-1-ylsulfonyl)-[1,3]dithiolo[4,5-b]quinoxalin-2-ylidene)acetate]
IC50 (HCT-116): 87.4 ± 4.2 µM
IC50 (HepG2): 80.3 ± 4.1 µM

O=C1CCCCC1=C1Sc2nc3ccc(S(=O)(=O)N4CCCC4)cc3nc2S1 [Compound 12, 2-(6-(Pyrrolidin-1-ylsulfonyl)-[1,3]dithiolo[4,5-b]quinoxalin-2-ylidene)cyclohexan-1-one]
IC50 (EGFR^(L858R); Enzyme inhibitory activity IC50 EGFR^(L858R)): 0.121 ± 0.007 µM
inhibition at 10 µM (EGFR^(L858R); read-out: Inhibitory% EGFR^(L858R)): 87%
Selectivity index (SI) (MCF-7): 21.37
IC50 (MCF-7; Homo sapiens, MCF7, 24 h): 3.82 ± 0.2 µM
Fold increase of potency as compared with doxorubicin (MCF-7; MCF-7): 1.09 fold
IC50 (EGFR^Wt; Enzyme inhibitory activity IC50 EGFR^Wt): 0.19 ± 0.009 µM
inhibition at 10 µM (EGFR^Wt; read-out: Inhibitory% EGFR^Wt): 85.4%
RT-PCR results fold change p53 (pro-apoptotic) (p53): 4.97 fold
IC50 (VEGFR2; Enzyme inhibitory activity IC50 VEGFR2): 0.42 ± 0.021 µM
inhibition at 10 µM (VEGFR2; read-out: Inhibitory% VEGFR2): 78.9%
Cell cycle distribution %G2/M (MCF-7 cells [1]; untreated control 12.55): 7.32%
Cell cycle distribution %G0-G1 (MCF-7 cells [1]; untreated control 57.66): 48.16%
Selectivity index (SI) (HCT-116): 10.26
IC50 (HCT-116): 7.95 ± 0.5 µM
Selectivity index (SI) (MDA-MB-231): 36.12
Fold increase of potency as compared with doxorubicin (MDA-MB-231; MDA-MB-231): 1.41 fold
Selectivity index (SI) (HepG2): 9.89
IC50 (HepG2): 8.25 ± 0.6 µM
IC50 at 24 h [2]: 81.6 ± 4.1 µM
Increase in early apoptosis compared to the control (MCF-7 cells [3]; MCF-7): 54.59 folds
Increase in late apoptosis compared to the control (MCF-7 cells [3]; MCF-7): 79.33 folds
Apoptosis Late (MCF-7 cells [3]; MCF-7, at IC50 for 24 h, control 0.15): 11.9%
Apoptosis Early (MCF-7 cells [3]; MCF-7, at IC50 for 24 h, control 0.44): 24.02%
Necrosis (MCF-7 cells [3]; MCF-7, at IC50 for 24 h, control 1.25): 6.16%
Apoptosis Total (MCF-7 cells [3]; MCF-7, at IC50 for 24 h, control 1.84): 42.08%

CC1=NNC(=O)C1=C1Sc2nc3ccc(S(=O)(=O)N4CCCC4)cc3nc2S1 [Compound 14, 5-Methyl-4-(6-(pyrrolidin-1-ylsulfonyl)-[1,3]dithiolo[4,5-b]quinoxalin-2-ylidene)-2,4-dihydro-3H-pyrazol-3-one]
IC50 (HCT-116): 71.2 ± 3.8 µM
IC50 (HepG2): 69 ± 3.9 µM

O=S(=O)(c1ccc2nc(Cl)c(Cl)nc2c1)N1CCCC1 [Compound 7, 2,3-Dichloro-6-(pyrrolidin-1-ylsulfonyl)quinoxaline]
IC50 (HCT-116): 38.1 ± 2.2 µM
IC50 (HepG2): 48.7 ± 2.8 µM

N#CC(C#N)=C1Sc2nc3ccc(S(=O)(=O)N4CCCC4)cc3nc2S1 [Compound 10a, 2-(6-(Pyrrolidin-1-ylsulfonyl)-[1,3]dithiolo[4,5-b]quinoxalin-2-ylidene)malononitrile]
IC50 (HCT-116): 93.8 ± 4.7 µM
IC50 (HepG2): 89.7 ± 4.5 µM

N#CC(C(=O)Nc1cccc(C(F)(F)F)c1)=C1Sc2nc3ccc(S(=O)(=O)N4CCCC4)cc3nc2S1 [Compound 10c, 2-Cyano-2-(6-(pyrrolidin-1-ylsulfonyl)-[1,3]dithiolo[4,5-b]quinoxalin-2-ylidene)-N-(3-(trifluoromethyl)phenyl)acetamide]
Selectivity index (SI) (MCF-7): 10.61
IC50 (MCF-7; MCF-7, MTT, 24 h): 6.13 ± 0.4 µM
Selectivity index (SI) (HCT-116): 7.01
IC50 (HCT-116): 9.26 ± 0.8 µM
Selectivity index (SI) (MDA-MB-231): 8.48
Selectivity index (SI) (HepG2): 3.82
IC50 (HepG2): 17 ± 1.3 µM
IC50 at 24 h [2]: 65.1 ± 3.5 µM

O=C1NC(=O)C(=C2Sc3nc4ccc(S(=O)(=O)N5CCCC5)cc4nc3S2)C(=O)N1 [Compound 18, 5-(6-(Pyrrolidin-1-ylsulfonyl)-[1,3]dithiolo[4,5-b]quinoxalin-2-ylidene)pyrimidine-2,4,6(1H,3H,5H)-trione]
IC50 (MCF-7; Homo sapiens, MCF7, 24 h): 62.8 ± 3.4 µM
IC50 (HCT-116): > 100 µM
IC50 (HepG2): 83.4 ± 4.3 µM

N#CC(C(=O)NN=C1C(=O)Nc2ccccc21)=C1Sc2nc3ccc(S(=O)(=O)N4CCCC4)cc3nc2S1 [Compound 10e, 2-Cyano-N′-(2-oxoindolin-3-ylidene)-2-(6-(pyrrolidin-1-ylsulfonyl)-[1,3]dithiolo[4,5-b]quinoxalin-2-ylidene)acetohydrazide]
IC50 (HCT-116): 22 ± 1.7 µM
IC50 (HepG2): 41.9 ± 2.5 µM

COc1cccc2c1C(=O)c1c(O)c3c(c(O)c1C2=O)C[C@@](O)(C(=O)CO)C[C@@H]3O[C@H]1C[C@H](N)[C@H](O)[C@H](C)O1 [Doxorubicin, doxorubicin, reference compound]
IC50 (HepG2): 4.5 ± 0.2 µM

CCOC(=O)C(C(C)=O)=C1Sc2nc3ccc(S(=O)(=O)N4CCCC4)cc3nc2S1 [Compound 10f, Ethyl 3-oxo-2-(6-(pyrrolidin-1-ylsulfonyl)-[1,3]dithiolo[4,5-b]quinoxalin-2-ylidene)butanoate]
Selectivity index (SI) (MCF-7): 5.27
IC50 (MCF-7; MCF-7, MTT, 24 h): 8.78 ± 0.6 µM
Selectivity index (SI) (HCT-116): 3.69
IC50 (HCT-116): 12.5 ± 1 µM
Selectivity index (SI) (MDA-MB-231): 4.41
Selectivity index (SI) (HepG2): 1.76
IC50 (HepG2): 26.8 ± 1.9 µM
IC50 at 24 h [2]: 46.2 ± 2.4 µM

COc1ccc(C=NNC(=O)C(C#N)=C2Sc3nc4ccc(S(=O)(=O)N5CCCC5)cc4nc3S2)cc1 [Compound 10d, 2-Cyano-N′-(4-methoxybenzylidene)-2-(6-(pyrrolidin-1-ylsulfonyl)-[1,3]dithiolo[4,5-b]quinoxalin-2-ylidene)acetohydrazide]
IC50 (HCT-116): 18.4 ± 1.4 µM
IC50 (HepG2): 32.1 ± 2.2 µM

CC1=NN(c2ccccc2)C(=O)C1=C1Sc2nc3ccc(S(=O)(=O)N4CCCC4)cc3nc2S1 [Compound 16, 5-Methyl-2-phenyl-4-(6-(pyrrolidin-1-ylsulfonyl)-[1,3]dithiolo[4,5-b]quinoxalin-2-ylidene)-2,4-dihydro-3H-pyrazol-3-one]
IC50 (HCT-116): > 100 µM
IC50 (HepG2): > 100 µM
